Test results reported in PMC9828300 (2022).

Legend:
[1] = tested on: Olig (oligonucleotide fragment of the UCP1 gene promoter; Oligo) (DNA, G4) CGAGGGTGGGTAGGAGGGGACGCGGGGACT; assay: UV-vis absorption; conditions: 100 mM KCl; 10 mM Tris-HCl pH 7.4, 25°C; 6 μM DNA, 24 μM berberine; ~45% hypochromicity, 340 to 348 nm
[2] = tested on: Olig (oligonucleotide fragment of the UCP1 gene promoter; Oligo) (DNA, G4) CGAGGGTGGGTAGGAGGGGACGCGGGGACT; assay: fluorescence enhancement; conditions: 100 mM KCl; 10 mM Tris-HCl pH 7.4, 25°C; 6 μM DNA, 24 μM berberine; excitation 280 nm
[3] = tested on: Olig (oligonucleotide fragment of the UCP1 gene promoter; Oligo) (DNA, G4) CGAGGGTGGGTAGGAGGGGACGCGGGGACT; assay: native gel electrophoresis; conditions: 100 mM KCl; 10 mM Tris-HCl pH 7.4, 4°C overnight; 6 μM DNA, 24 μM berberine; Uni-G4 to Tetra-G4

Measured: binding

COc1ccc2cc3[n+](cc2c1OC)CCc1cc2c(cc1-3)OCO2
yes: all assays above
